{"source": "patent US20080031968A1", "about": "“Methods for increasing cellular energy expenditure” (priority 2005, published 2008)", "key": {"KK-Ay mice [1]": {"system": "KK-Ay mice", "experiment": "CA in KK-Ay mice, body weight, OGTT and IPITT", "assay_type": "in vivo, mouse", "description": "(§1) Male C57BL/6J and KK-Ay mice, 6-7 weeks of age, were obtained from Charles River Laboratories France (l'Arbresle, France) and CLEA Japan Inc. (Tokyo, Japan), respectively. […] All mice were maintained in a temperature-controlled (23° C.) facility with a 12 h light/dark cycle and were given free access to food and water. The control and high-fat diet was obtained from UAR (Villemoison surOrge, France). […] GW4064 was suspended in peanut oil and mixed with the high fat diet at a concentration of 180 mg per kg of food. […] The mice were fasted 4 h before harvesting blood for subsequent blood measurements, and tissues for RNA isolation, lipid measurements and histology. Oxygen consumption was measured using the Oxymax apparatus (Columbus Instruments, Columbus, Ohio).\n(§2) An OGTT was performed in animals that were fasted overnight. Glucose was administered by gavage at a dose of 2 g/kg. An IPITT was done in 4 h fasted animals. Insulin was injected at a dose of 0.75 U/kg. Glucose quantification was done with the Maxi Kit Glucometer 4 (Bayer Diagnostic, Puteaux, France) or Glucose RTU (bioMérieux Inc., Marcy l'Etoile, France). Plasma insulin concentrations were measured using ELISA (Cristal Chem Inc., Downers Grove, Ill.). Nonesterified fatty acids, triglycerides, ketone bodies, BA and total cholesterol were determined by enzymatic assays (Roche, Mannheim, Germany). cAMP was measured using the cAMP-Screen system (Applied Biosystems, Bedford, Mass.)."}, "C57BL/6J mice [2]": {"system": "C57BL/6J mice", "experiment": "LXR agonist-induced lipogenesis in C57BL/6J mice with or without CA", "assay_type": "in vivo, mouse", "description": "(§3) Male C57BL/6J, KK-Ay, and ob/ob (C57BL/6J background) mice, 6-10 weeks of age, were obtained from Elevage Janvier (Le Genest St. Isle, France), CLEA Japan Inc. (Tokyo, Japan), and The Jackson Laboratory (Bar Harbor, Me., USA), respectively. All mice were maintained in a temperature-controlled (23° C.) facility with a 12-hour light/dark cycle and were given free access to food and water. The study protocols were approved by the institutional review boards. The body weight and food intake were measured every second day. The control and high-fat diet was obtained from UAR (Villemoisson sur Orge, France). […] The mice were fasted 4 hours before harvesting blood for subsequent lipid measurements, and tissues for RNA isolation, lipid measurements, and histology.\nMice were gavaged with the LXR agonist T0901317 or vehicle, and the different diets were continued for one more day, after which the mice were sacrificed."}, "TGR5": {"target": "T1, TGR5 (Homo sapiens, UniProt Q8TDU6)", "T1 construct": "expressed in transfected cells", "T1 sequence (Q8TDU6 1-330)": "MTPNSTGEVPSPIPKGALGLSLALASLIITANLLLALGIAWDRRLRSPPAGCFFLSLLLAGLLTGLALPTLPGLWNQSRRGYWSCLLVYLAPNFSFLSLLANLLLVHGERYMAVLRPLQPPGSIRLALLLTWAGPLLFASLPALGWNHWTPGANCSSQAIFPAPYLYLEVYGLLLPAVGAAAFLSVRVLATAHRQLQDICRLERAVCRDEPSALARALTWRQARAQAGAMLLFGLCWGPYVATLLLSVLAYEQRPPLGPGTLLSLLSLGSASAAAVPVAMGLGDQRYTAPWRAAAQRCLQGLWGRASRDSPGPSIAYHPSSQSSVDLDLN", "experiment": "cAMP response element (CRE)-luciferase reporter assay with TGR5", "assay_type": "cell-based", "settings": "cells co-transfected with TGR5 expression plasmid and CRE-driven luciferase reporter", "from_the_text": "Since a synthetic FXRα agonist was unable to phenocopy the effects of BAs on energy expenditure, we focused our attention on FXRα-independent signaling events stimulated by BAs. […] We used a cAMP response element (CRE)-luciferase reporter assay to confirm that TGR5 is a BA receptor.\nWe used quantitative RT-PCR to measure the expression of D2 and TGR5 mRNAs in selected mouse tissues."}, "humans": {"system": "humans", "settings": "cited from earlier work"}, "[3]": {"system": "wild-type and LXRα/β-/- mice", "experiment": "CA diet in wild-type and LXRα/β-/- mice", "assay_type": "in vivo, mouse", "settings": "0.5% CA for 3 days", "description": "as §3\nTo determine whether LXR is essential for the TG-lowering effect of bile acids, we used LXRα/LXRβ double-knockout mice ([…])."}, "BAT": {"system": "BAT", "experiment": "cAMP levels in BAT of mice fed high fat diet with CA", "assay_type": "in vivo, mouse", "settings": "mice fed high fat diet with CA vs control mice", "description": "as §2"}, "KK-Ay mice [4]": {"system": "KK-Ay mice", "experiment": "Liver TG and cholesterol content and histology in KK-Ay mice", "assay_type": "in vivo, mouse", "description": "as §3\nFor measurement of liver TGs and cholesterol content, a liver was homogenized in chloroform/methanol (2:1 v/v) using a Polytron tissue grinder (Kinematica AG, Luzern, Switzerland). Lipid extracts were prepared by the classical Folch method. Extracts were dried under N2 flow and resuspended in isopropanol."}, "KK-Ay and C57BL/6J mice": {"system": "KK-Ay and C57BL/6J mice", "experiment": "Tissue mRNA levels by quantitative RT-PCR after CA supplementation", "assay_type": "in vivo, mouse", "description": "as §3\nTotal RNA was extracted from frozen tissue samples or cells using the RNeasy kit (QIAGEN, Courtaboeuf, France). cDNA was synthesized from total RNA with the SuperScript First-Strand Synthesis System (Invitrogen) and random hexamer primers. The real-time PCR measurement of individual cDNAs was performed using SYBR green dye to measure duplex DNA formation with the LightCycler System (Roche Diagnostics, Meylan, France). The sequences of the primer sets used are available online at http://www-igbmc.ustrasbg.fr/Departments/Dep_V/Dep_VA/Publi/Paper.html."}, "C57BL/6J mice [5]": {"system": "C57BL/6J mice", "experiment": "Diet-induced obesity in C57BL/6J mice", "assay_type": "in vivo, mouse", "description": "as §1, §2\nPieces of mouse tissues were fixed in Bouin's solution, dehydrated in ethanol, embedded in paraffin, and cut at a thickness of 5 μm. Sections were deparaffinized, rehydrated, and stained with haematoxylin and eosin. Transmission electron microscopy was then performed."}, "wildtype and D2-/- mice": {"system": "wildtype and D2-/- mice", "experiment": "Diet-induced obesity in D2-/- mice and littermate controls", "assay_type": "in vivo, mouse", "description": "as §1\nNext, we used mice with a targeted disruption of the D2 gene (D2−/− mice) and littermate controls in a diet-induced obesity study for 50 days."}, "[6]": {"settings": "KK-Ay mice, CA added to normal chow diet"}, "[7]": {"settings": "CA coadministration with T0901317"}, "[8]": {"settings": "KK-Ay and C57BL/6J mice, 1 and 7 days CA in chow"}, "[9]": {"settings": "high fat diet supplemented with CA, histology"}}, "data": [{"smiles": "C[C@H](CCC(=O)O)[C@H]1CC[C@H]2[C@@H]3[C@H](O)C[C@@H]4C[C@H](O)CC[C@]4(C)[C@H]3C[C@H](O)[C@]12C", "note": "[CA, cholic acid]", "values": [{"measurement": "body weight", "setting": "KK-Ay mice [1]; [6]", "result": "decreased body weight"}, {"measurement": "metabolic control (oral glucose tolerance test, intraperitoneal insulin tolerance test)", "setting": "KK-Ay mice [1]; [6]", "result": "improved metabolic control"}, {"measurement": "insulin sensitivity", "setting": "KK-Ay mice [1]; KK-Ay mouse", "result": "improve insulin sensitivity"}, {"measurement": "SHP expression", "setting": "C57BL/6J mice [2]; [7]", "result": "increased SHP expression"}, {"measurement": "SREBP-1c and its target genes", "setting": "C57BL/6J mice [2]; [7]", "result": "prevented the induction"}, {"measurement": "LXR agonist induction of liver weight and serum TGs", "setting": "C57BL/6J mice [2]; coadministration of 0.5% CA with T0901317", "result": "completely prevented"}, {"measurement": "luciferase expression", "setting": "TGR5", "result": "increased luciferase expression in a dose-dependent manner"}, {"measurement": "hepatotoxicity", "setting": "humans", "result": "significant hepatotoxicity"}, {"measurement": "decrease in serum TGs, SREBP-1c and ME", "setting": "[3]; LXRα/β-/- mice", "result": "not observed"}, {"measurement": "SHP expression", "setting": "[3]; wild-type and LXRα/β-/- animals", "result": "induced significantly"}, {"measurement": "serum TG", "setting": "[3]; wild-type animals", "result": "decreased serum TG"}, {"measurement": "cAMP levels in BAT", "setting": "BAT", "result": "significantly elevated"}, {"measurement": "liver TGs content", "setting": "KK-Ay mice [4]; CA 3 weeks, chow or high-fat diet", "result": "significantly lower"}, {"measurement": "hepatic cholesterol", "setting": "KK-Ay mice [4]; CA 3 weeks, particularly high-fat diet", "result": "increased hepatic cholesterol"}, {"measurement": "neutral lipids in liver sections (Oil Red O)", "setting": "KK-Ay mice [4]; high-fat diet with CA, 3 weeks", "result": "accumulated less neutral lipids"}, {"measurement": "hepatic expression of MCAD and LCAD", "setting": "KK-Ay and C57BL/6J mice; C57BL/6J mice, 1 and 7 days CA", "result": "significantly decreased"}, {"measurement": "expression of lipogenic genes in white adipose tissue", "setting": "KK-Ay and C57BL/6J mice; CA treatment", "result": "none of the lipogenic genes were lowered"}, {"measurement": "hepatic expression of SHP", "setting": "KK-Ay and C57BL/6J mice; CA treatment", "result": "robust induction"}, {"measurement": "hepatic expression of AceCS, ME and SCD-1", "setting": "KK-Ay and C57BL/6J mice; [8]", "result": "significantly reduced"}, {"measurement": "hepatic expression of LXRA, LRH-1, FXR and SREBP-2", "setting": "KK-Ay and C57BL/6J mice; [8]", "result": "No major changes"}, {"measurement": "hepatic expression of CPT-I, MCAD and LCAD", "setting": "KK-Ay and C57BL/6J mice; KK-Ay mice, CA", "result": "no change"}, {"measurement": "glucose tolerance", "setting": "C57BL/6J mice [5]; C57BL/6J mice with diet-induced obesity", "result": "improves glucose tolerance"}, {"measurement": "body weight gain", "setting": "C57BL/6J mice [5]; chow diet supplemented with CA", "result": "no effect"}, {"measurement": "high fat-induced changes in adipose mass and morphology", "setting": "C57BL/6J mice [5]; diet supplementation with CA", "result": "completely prevented"}, {"measurement": "weight gain", "setting": "C57BL/6J mice [5]; high fat diet supplemented with 0.5% CA", "result": "reduced the weight gain"}, {"measurement": "adipocyte hypertrophy in WAT and BAT", "setting": "C57BL/6J mice [5]; [9]", "result": "not observed"}, {"measurement": "liver steatosis", "setting": "C57BL/6J mice [5]; [9]", "result": "reversed"}, {"measurement": "120-days of diet-induced weight gain", "setting": "C57BL/6J mice [5]; obese mice switched to high fat diet containing CA", "result": "reversed"}, {"measurement": "time to return to normal body weight", "setting": "C57BL/6J mice [5]; obese mice switched to high fat diet containing CA (F-FA)", "result": "≤ 30", "unit": "days"}, {"measurement": "development of obesity", "setting": "wildtype and D2-/- mice; D2-/- mice, CA added to high fat diet, 50 days", "result": "no effect"}, {"measurement": "diet induced obesity", "setting": "wildtype and D2-/- mice; wildtype mice, CA added to high fat diet, 50 days", "result": "prevented diet induced obesity"}, {"measurement": "expression of PGC-1α in BAT", "setting": "wildtype and D2-/- mice; wildtype mice, CA feeding", "result": "significantly induced"}]}]}
